1 compound from US11608320B2, “Oxazolidinone hydroxamic acid derivatives” (KUWAIT UNIVERSITY, priority 2020, dated 2023) can be followed below.

In assay [1] the target is T1, recombinant human 5-LO enzyme (Homo sapiens, UniProt P09917).
T1 sequence (P09917 1-674): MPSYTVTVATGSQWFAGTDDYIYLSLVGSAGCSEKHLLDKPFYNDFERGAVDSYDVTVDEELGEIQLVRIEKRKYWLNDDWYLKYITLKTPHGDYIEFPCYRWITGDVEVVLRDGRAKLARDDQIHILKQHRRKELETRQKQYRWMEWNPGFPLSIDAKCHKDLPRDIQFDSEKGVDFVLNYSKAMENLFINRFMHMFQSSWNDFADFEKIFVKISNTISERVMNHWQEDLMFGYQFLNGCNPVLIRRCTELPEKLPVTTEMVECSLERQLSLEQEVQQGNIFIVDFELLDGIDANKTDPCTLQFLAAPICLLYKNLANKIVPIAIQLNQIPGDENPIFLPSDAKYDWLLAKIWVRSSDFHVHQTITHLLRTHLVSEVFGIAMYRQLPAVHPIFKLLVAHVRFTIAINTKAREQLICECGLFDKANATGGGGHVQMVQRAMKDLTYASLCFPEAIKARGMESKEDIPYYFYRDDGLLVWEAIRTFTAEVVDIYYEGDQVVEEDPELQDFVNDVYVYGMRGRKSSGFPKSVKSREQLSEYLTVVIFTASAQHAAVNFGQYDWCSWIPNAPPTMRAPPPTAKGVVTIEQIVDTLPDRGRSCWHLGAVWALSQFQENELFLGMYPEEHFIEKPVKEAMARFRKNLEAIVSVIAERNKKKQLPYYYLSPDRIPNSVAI
Briefly: Direct 5-LO inhibitory activity in a cell-free assay (H2DCF-DA fluorescence). In kind it is biochemical. Conditions: cell-free, recombinant human 5-LO; read-out: Inhibitory Activity IC50, Human recomb. 5-LO. As to the method:
H2DCF-DA (60 μM) was first pre-cleaved by incubating with 450 mU/ml recombinant human 5-LO enzyme in Tris buffer (containing 50 mM Tris, pH=7.5, 2 mM EDTA, 2 mM CaCl2), 1 mM dithiothreitol (DTT) and 0.6 U/ml glutathione peroxidase) for 10 min at room temperature. […] After 10 min incubation at room temperature, the reaction was started with the addition of 50 μl of the substrate solution (Tris buffer containing 20 μM ATP and 20 μM arachidonic acid). After a further 20 min, the reaction was terminated with 100 μl acetonitrile. Fluorescence was read at 500 nm excitation and 520 emission, with Novostar® microplate reader (BMG Labtech, Offenburg, Germany). Appropriate controls, including 100 μM nordihydroguaiaretic acid (NDGA), were included to isolate only the 5-LO-attributable, NDGA-inhibitable RFU values.

Assay [2] has as its system LTC4 release from IgE/antigen-activated mouse mast cells (BMMC). Kind of assay: Inhibition of LTC4 release in allergen/IgE-activated bone marrow-derived mouse mast cells. In kind it is cell-based. The note with it: BMMC, anti-DNP IgE sensitized, DNP-BSA 30 ng/ml, 30 min. From the text:
(§1) Inhibition of LTC4 release and degranulation in allergen/IgE-activated bone marrow-derived mouse mast cells (BMMC): Bone marrow-derived mast cells (BMMC) were generated from pathogen-free 5-7 week old male Balb/c mice according to the method of Davis et al., [2004] (Davis, B. J., et al., (2004), Journal of Immunology, 173: 6914-6920). Essentially, bone marrow cells were obtained by flushing of the femoral bone marrow and cultured in RPMI 1640 medium supplemented with 10% FBS, 100 U/ml penicillin, and 100 μg/ml streptomycin, 25 mM HEPES, 1.0 mM sodium pyruvate, 0.1 mM nonessential amino acids, 0.0035% 2-mercaptoethanol, and 30 ng/ml mouse recombinant IL-3, with culture medium replaced every two days. Cells were used after 4-8 weeks of culture, by which time at least 97% of the cells would have differentiated into mast cells.
(§2) The generated BMMCs were seeded at 5×10^4 cells/well in a 96-well flat-bottom culture plate and passively sensitized overnight with 0.5 μg/ml anti-DNP monoclonal IgE antibody (clone SPE-7, Sigma-Aldrich, St. Louis, Mo., USA). The cells were then washed twice to remove any unbound antibody and subsequently re-suspended in reaction buffer (135 mM NaCl, 5 mM KCl, 1.8 mM CaCl2), 1 mM MgCl2, 5.6 mM glucose, 0.05% BSA and 20 mM HEPES, pH 7.4). They were then pre-incubated with the test compounds (0.01-30 μM) or the solvent (0.05% DMSO) for 15 min before being stimulated with the specific antigen, DNP-BSA (30 ng/ml). After 30 min incubation at 37° C., the amount of LTC4 released into the supernatant (as index of 5-LO activity) was determined by ELISA as described below.
Assay of released leukotrienes/β-hexoseaminidase enzyme: Appropriately diluted supernatants were assayed for the released LTs (LTB4 and LTC4), by the enzyme immunoassay (EIA) method using assay kits supplied by R&D Systems (Minneapolis, Minn., USA) and following the manufacturer's instructions.

For assay [3], the system named is degranulation of bone marrow-derived mouse mast cells. Kind of assay: Inhibition of degranulation (β-hexoseaminidase release) in allergen/IgE-activated BMMC. The note with it: anti-DNP IgE sensitized, DNP-BSA 30 ng/ml, 30 min. In kind it is cell-based.
Description: as §1
as §2, with “They were then pre-incubated with the test compounds (0.01-30 μM) or the solvent (0.05% DMSO) for 15 min before being stimulated with the specific antigen, DNP-BSA (30 ng/ml).” left out
The concurrently-released granular enzyme, β-hexoseaminidase (as index of degranulation) was determined as described below.
The beta-hexoseaminidase released into the supernatant by the degranulating BMMCs was determined colorimetrically using p-nitrophenyl-N-acetyl-β-D-glucosaminide as substrate. […] The absorbance of the colored product (p-nitrophenol) was then read at 405 nm in a microplate reader. Results were expressed as percentage of the total cell content (determined in cells lysed with 0.1% triton-x-100).

Assay [4] relates to zymosan-induced peritonitis. Kind of assay: Zymosan-induced peritoneal inflammation in mice. In kind it is in vivo, mouse. The note with it: 30 min before zymosan i.p., peritoneal exudate at 2 h. From the text:
Inhibition of zymosan-induced peritoneal inflammation in mice: Female Balb/c mice, 6-8 weeks old, obtained from the Animal Resources Center of the Health Sciences Center, Kuwait University, were used. They were maintained under temperature-controlled conditions with an artificial 12-h light/dark cycle and allowed standard chow and water ad libitum. The study protocol was approved by the “Health Sciences Center Animal Welfare Committee” and complied with the “Guidelines for the Care and Use of Laboratory Animals” of the Health Sciences Centre, Kuwait University. The zymosan-induced peritonitis model-a recognized LT-mediated inflammatory reaction, described particularly in Hanke et al., 2013 ([…]., et al. (2013). Journal of medicinal chemistry, 56(22), 9031-9044) was used. […] After 30 min, all groups were injected intraperitonally with 0.2 ml of activated zymosan (2 mg/ml) except the control group that received 0.2 ml PBS. After 2 h, all animals were killed and the peritoneal exudate was collected by washing the cavity with 3 ml of heparinized (10 IU/ml) PBS.

Consider `CCCCCCCC(=O)N(O)C[C@H]1CN(c2ccc(N3CCOCC3)c(F)c2)C(=O)O1` [PH-251, (R)—N-((3-(3-fluoro-4-morpholinophenyl)-2-oxooxazolidin-5-yl)methyl)-N-hydroxyoctanamide], for which the IC50 in assay [1] amounted to 1.6 µM. Also, the “Inhibition of generation of LTC4 from IgE/allergen-activated mast cells (FIG. 2A)” value in assay [2] is listed as “equally effective in inhibiting the generation of LTC4”. Besides, the “Inhibition of degranulation (release of granular β-hexoseaminidase) (FIG. 2B)” value in assay [3] is “able to inhibit degranulation”. For the same compound, in assay [4] (3 mg/kg s.c.), the “Net Exudate Vol” value amounted to 0.24 ± 0.05 mL, the “Total Cell No” value is on record as 21.1 ± 1.6 ×10^6 and the “Total LTC4” value is on record as 101.7 ± 20.2 ng. In addition, in assay [4] (10 mg/kg s.c.), the “Net Exudate Vol” value came to 0.12 ± 0.08 mL, the “Total Cell No” value was 16.4 ±17 ×10^6 and the “Total LTC4” value amounted to 77.4 ± 16.8 ng. Moreover, in assay [4] (30 mg/kg s.c.), the “Net Exudate Vol” value worked out at 0.04 ± 0.02 mL, the “Total Cell No” value is 17.6 ± 2.1 ×10^6 and the “Total LTC4” value amounted to 33.9 ± 4.9 ng.
